Patent US7795226B2, “Control of radiation injury” (Biotempt B.V., priority 2006, dated 2010)
Several values for one entry are separate records, joined by “and”; a condition that tells them apart may be missing. Identical values can stand only once.

Legend:
Type in all cases: in vivo
[1] = test system: renal ischemia reperfusion in mice; assay: mouse renal ischemia reperfusion test; parameters: BUN after 25 minutes renal ischemia, mean / Urea levels in dose-response experiment: unit not given here; conditions: for BUN after 25 minutes renal ischemia, mean / BUN concentration versus PBS (in words) / BUN concentration versus the PBS control group (in words) / mortality versus the PBS control group (in words): 5 mg/kg i.v.; for mortality at 72 hours post-reperfusion: 5 mg/kg i.v. before and after 25 minutes clamping, dead/total
Method: Six oligopeptides (i.e., A: LAGV (SEQ ID NO:121); B: AQGV (SEQ ID NO:120); C: LAG; D: AQG; E: MTR; and F: MTRV (SEO ID NO:119)) were tested and compared with PBS (control) in a double blind animal study for each peptide's relative ability to aid recovery in a mouse renal ischemia reperfusion test. In this test, the mice were anesthetized, and one kidney from each mouse was removed. The other kidney was tied off for 25 minutes, and the serum urea levels were allowed to increase. Both before and after tying off, each of the separate peptides was administered to thirty (30) different mice (5 mg oligopeptide / kg body mass intravenously), after which, the mortality of the mice was determined for each oligopeptide as well as was the BUN concentration at two hours, 24 hours and 72 hours. The results are shown in Table 3 below (excluding the results of peptide A (LAGV (SEQ ID NO:121)) obtained in Example 3).
Under inhalation anesthesia, the left kidney with its artery and vein was isolated and occluded for 25 minutes using a microvascular clamp. During surgery, animals were placed on a heating pad to maintain body temperature at 37° C. Five minutes before placing the clamp, and five minutes before releasing the clamp, 5 mg/kg of peptide dissolved in 0.1 mL of sterile saline, was administered intravenously. After reperfusion of the left kidney, the right kidney was removed. Kidney function was assessed by measuring blood urea nitrogen before clamping, and at 2, 24, and 72 hours after reperfusion.
Peptides were tested at 0.3, 1, 3, 10 and 30 mg/kg dosages given as described in Example 3. P values (calculated by Mann Whitney U-test (SPSS for Windows)) of serum urea levels of PBS compared to peptide D groups at 72 hours post-clamping were at 0.3 mg/kg 0.001, at 1 mg/kg 0.009, at 3 mg/kg 0.02, at 10 mg/kg 0.000, and at 30 mg/kg 0.23; for peptide B (SEQ ID NO:120) groups, these P-values were 0.88, 0.054, 0.000, 0.001 and 0.003.

[2] = test system: LPS (E. coli 026:B6)-induced septic shock in BALB/c mice; assay: LPS-induced septic shock, single dose of peptide
Method: Mice used in sepsis or septic shock experiments: Female BALB/c mice of eight to twelve weeks of age were used for all experiments. The animals were bred in our facility under specific pathogen-free conditions according to the protocols described in the […] of European Laboratory Animal Science Associations (FELASA) Working group on Animal Health (Laboratory Animals 28:1-24, 1994).
Injection protocols: For the endotoxin model, BALB/c mice were injected i.p. with 150-300 μg LPS (E. coli 026:B6; Difco Lab., Detroit, Mich., USA). Control groups were treated with PBS i.p. only. To test the effect of peptides, they were dissolved in PBS and injected i.p. at predetermined points in time after LPS treatment.
Mice were scored for sickness severity using the following measurement scheme: • 0 No abnormalities. • 1 Percolated fur, but no detectable behavior differences compared to normal mice. • 2 Percolated fur, huddle reflex, responds to stimuli (such as tap on cage), just as active during handling as healthy mouse. • 3 Slower response to tap on cage, passive or docile when handled, but still curious when alone in a new setting. • 4 Lack of curiosity, little or no response to stimuli, quite immobile. • 5 Labored breathing, inability or slow to self-right after being rolled onto back (moribund, sacrificed). • D Dead.
A first set of septic shock experiments were set up to determine which of the peptides LQG, LQGV (SEQ ID NO:117), VLPALP (SEQ ID NO:140), VLPALPQ (SEQ ID NO:143), MTR, MTRV (SEQ ID NO:119), VVC or QVVC (SEQ ID NO:118) were capable of inhibiting lipopolysaccharide (LPS)-induced septic shock in mice by treating mice with a single dose of peptide at two hours after LPS treatment. Peptides were used at 5 mg/kg bodyweight. BALB/c mice were injected i.p. with escalating doses LPS (E. coli 026:B6; Difco Lab., Detroit, Mich. USA), predetermined to be leading to 80 to 100% mortality in 24 to 72 hours.
To test the effect of peptide early in the development of shock, mice were treated at two hours or at 24 hours after treatment with varying doses of LPS by i.p. injection with test peptide at 5 mg/kg bodyweight.

[3] = test system: high dose LPS (E. coli 026:B6)-induced septic shock in BALB/c mice; assay: high dose LPS-induced septic shock, peptide administered twice; conditions: peptide twice (t = 2 and 24 hours) 5 mg/kg
How it was run: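 Female BALB/c mice (8–12 weeks) given high-dose LPS (E. coli 026:B6) i.p., predetermined to cause 80–100% mortality in 24–72 h. Peptides in PBS at 5 mg/kg i.p. at 2 and 24 h after LPS; sickness scored 0–5 or dead.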

[4] = LPS dose 7**, single dose 5 mg/kg
[5] = LPS dose 7*, single dose 5 mg/kg
[6] = LPS dose 8, single dose 5 mg/kg
[7] = LPS dose 10, single dose 5 mg/kg
[8] = LPS dose 10, single dose 5 mg/kg, 5 mg/kg

LQG
BUN after 25 minutes renal ischemia, mean ([1]; 2 hours after reperfusion): 16.75
BUN after 25 minutes renal ischemia, mean ([1]; 24 hours after reperfusion): 26.74
BUN after 25 minutes renal ischemia, mean ([1]; 72 hours after reperfusion): 83.96
BUN concentration versus PBS (in words) ([1]; at 24 hours post-reperfusion): reduced BUN concentration
BUN after 25 minutes renal ischemia, mean ([1]; t = 0 hr (before clamping)): 7.821
mice scored D (dead), effect at t = 24 hours [2, 4]: 1
mice scored D (dead), effect at t = 48 hours [2, 4]: 5
mice with sickness score 4, effect at t = 24 hours [2, 4]: 3
mice with sickness score 4, effect at t = 48 hours [2, 4]: 1
mice with sickness score 5, effect at t = 24 hours [2, 4]: 2
mice scored D (dead), effect at t = 48 hours [2, 5]: 4
mice with sickness score 4, effect at t = 24 hours [2, 5]: 3
mice with sickness score 5, effect at t = 24 hours [2, 5]: 3
mice with sickness score 5, effect at t = 48 hours [2, 5]: 2
mice scored D (dead), effect at t = 24 hours [2, 6]: 1
mice scored D (dead), effect at t = 48 hours [2, 6]: 6
mice with sickness score 2, effect at t = 24 hours [2, 6]: 2
mice with sickness score 3, effect at t = 24 hours [2, 6]: 1
mice with sickness score 3, effect at t = 48 hours [2, 6]: 1
mice with sickness score 4, effect at t = 48 hours [2, 6]: 2
mice with sickness score 5, effect at t = 24 hours [2, 6]: 4
mice with sickness score 5, effect at t = 48 hours [2, 6]: 3
mice with sickness score 3, effect at t = 24 hours [2, 7]: 1
mice with sickness score 4, effect at t = 24 hours [2, 7]: 2
mice with sickness score 4, effect at t = 48 hours [2, 7]: 1
mice with sickness score 5, effect at t = 48 hours [2, 7]: 2
mice scored D (dead), effect at t = 48 hours [2, 8]: 4 and 3
mice with sickness score 5, effect at t = 24 hours [2, 8]: 4 and 3
mice scored D (dead), effect at t = 48 hours ([3]; LPS dose 10.5): 5
mice with sickness score 5, effect at t = 24 hours ([3]; LPS dose 10.5): 5
mice scored D (dead), effect at t = 48 hours ([3]; LPS dose 11): 6
mice with sickness score 4, effect at t = 24 hours ([3]; LPS dose 11): 6

LQGV
BUN after 25 minutes renal ischemia, mean ([1]; 2 hours after reperfusion): 17.53
BUN after 25 minutes renal ischemia, mean ([1]; 24 hours after reperfusion): 56.08
BUN after 25 minutes renal ischemia, mean ([1]; 72 hours after reperfusion): 73.18
BUN after 25 minutes renal ischemia, mean ([1]; t = 0 hr (before clamping)): 7.518
protective effect against LPS-induced sepsis (in words) ([2]; 5 mg/kg i.p.): marked protective effect
mice with sickness score 1, effect at t = 24 hours [2, 4]: 6
mice with sickness score 1, effect at t = 48 hours [2, 4]: 6
mice with sickness score 1, effect at t = 24 hours [2, 5]: 2
mice with sickness score 1, effect at t = 48 hours [2, 5]: 6
mice with sickness score 2, effect at t = 24 hours [2, 5]: 4
mice with sickness score 0, effect at t = 48 hours [2, 6]: 4
mice with sickness score 1, effect at t = 24 hours [2, 6]: 3
mice with sickness score 2, effect at t = 48 hours [2, 6]: 1
mice with sickness score 3, effect at t = 24 hours [2, 6]: 1
mice with sickness score 2, effect at t = 24 hours ([2]; LPS dose 8, single dose 5 mg/kg, 5 mg/kg): 5 and 3
mice scored D (dead), effect at t = 48 hours [2, 7]: 1
mice with sickness score 1, effect at t = 24 hours [2, 7]: 2
mice with sickness score 2, effect at t = 48 hours [2, 7]: 1
mice with sickness score 3, effect at t = 24 hours [2, 7]: 1
mice with sickness score 4, effect at t = 24 hours [2, 7]: 1
mice with sickness score 1, effect at t = 48 hours [2, 8]: 6 and 4
mice scored D (dead), effect at t = 48 hours ([3]; LPS dose 10.5): 5
mice with sickness score 5, effect at t = 24 hours ([3]; LPS dose 10.5): 5
mice scored D (dead), effect at t = 48 hours ([3]; LPS dose 11): 4
mice with sickness score 4, effect at t = 24 hours ([3]; LPS dose 11): 2
mice with sickness score 4, effect at t = 48 hours ([3]; LPS dose 11): 2
mice with sickness score 5, effect at t = 24 hours ([3]; LPS dose 11): 4

MTR
BUN concentration versus the PBS control group (in words) [1]: no reducing effect on BUN concentration
mortality versus the PBS control group (in words) [1]: significant reduction of mortality
mortality at 72 hours post-reperfusion [1]: 4/10
BUN after 25 minutes renal ischemia, mean ([1]; 2 hours after reperfusion): 17.13
BUN after 25 minutes renal ischemia, mean ([1]; 24 hours after reperfusion): 66.23
BUN after 25 minutes renal ischemia, mean ([1]; 72 hours after reperfusion): 104.0167
BUN concentration versus PBS (in words) ([1]; at 72 hours post-reperfusion): significantly raise BUN levels
BUN after 25 minutes renal ischemia, mean ([1]; t = 0 hr (before clamping)): 8.404
mice scored D (dead), effect at t = 48 hours [2, 4]: 3
mice with sickness score 1, effect at t = 48 hours [2, 4]: 3
mice with sickness score 2, effect at t = 24 hours [2, 4]: 1
mice with sickness score 3, effect at t = 24 hours [2, 4]: 3
mice with sickness score 4, effect at t = 24 hours [2, 4]: 1
mice with sickness score 5, effect at t = 24 hours [2, 4]: 1
mice scored D (dead), effect at t = 48 hours [2, 5]: 1
mice with sickness score 3, effect at t = 24 hours [2, 5]: 3
mice with sickness score 4, effect at t = 24 hours [2, 5]: 3
mice with sickness score 4, effect at t = 48 hours [2, 5]: 2
mice with sickness score 5, effect at t = 48 hours [2, 5]: 3
mice scored D (dead), effect at t = 24 hours [2, 7]: 1
mice scored D (dead), effect at t = 48 hours [2, 7]: 3
mice with sickness score 1, effect at t = 48 hours [2, 7]: 2
mice with sickness score 3, effect at t = 24 hours [2, 7]: 2
mice with sickness score 4, effect at t = 24 hours [2, 7]: 3
mice with sickness score 5, effect at t = 48 hours [2, 7]: 1
mice with sickness score 1, effect at t = 24 hours ([3]; LPS dose 10.5): 4
mice with sickness score 1, effect at t = 48 hours ([3]; LPS dose 10.5): 5
mice with sickness score 2, effect at t = 24 hours ([3]; LPS dose 10.5): 1
mice with sickness score 1, effect at t = 24 hours ([3]; LPS dose 11): 6
mice with sickness score 1, effect at t = 48 hours ([3]; LPS dose 11): 6

MTRV
BUN concentration versus the PBS control group (in words) [1]: reduced BUN concentration
mortality versus the PBS control group (in words) [1]: significant reduction in mortality
mortality at 72 hours post-reperfusion [1]: 2/10
BUN after 25 minutes renal ischemia, mean ([1]; 2 hours after reperfusion): 15.09
BUN after 25 minutes renal ischemia, mean ([1]; 24 hours after reperfusion): 34.57
BUN after 25 minutes renal ischemia, mean ([1]; 72 hours after reperfusion): 39.8375
BUN after 25 minutes renal ischemia, mean ([1]; t = 0 hr (before clamping)): 7.463
mice scored D (dead), effect at t = 48 hours [2, 4]: 2
mice with sickness score 1, effect at t = 48 hours [2, 4]: 3
mice with sickness score 3, effect at t = 24 hours [2, 4]: 2
mice with sickness score 3, effect at t = 48 hours [2, 4]: 1
mice with sickness score 4, effect at t = 24 hours [2, 4]: 3
mice with sickness score 5, effect at t = 24 hours [2, 4]: 1
mice with sickness score 2, effect at t = 48 hours [2, 5]: 4
mice with sickness score 3, effect at t = 24 hours [2, 5]: 3
mice with sickness score 4, effect at t = 24 hours [2, 5]: 3
mice with sickness score 5, effect at t = 48 hours [2, 5]: 2
mice with sickness score 1, effect at t = 48 hours [2, 7]: 2
mice with sickness score 3, effect at t = 48 hours [2, 7]: 1
mice with sickness score 5, effect at t = 48 hours [2, 7]: 1
mice with sickness score 2, effect at t = 24 hours [2, 8]: 2 and 1
mice with sickness score 3, effect at t = 24 hours [2, 8]: 1 and 2
mice with sickness score 4, effect at t = 24 hours [2, 8]: 2 and 1
mice with sickness score 5, effect at t = 24 hours [2, 8]: 1 and 2
mice with sickness score 1, effect at t = 48 hours ([3]; LPS dose 10.5): 2
mice with sickness score 2, effect at t = 24 hours ([3]; LPS dose 10.5): 1
mice with sickness score 2, effect at t = 48 hours ([3]; LPS dose 10.5): 3
mice with sickness score 3, effect at t = 24 hours ([3]; LPS dose 10.5): 1
mice with sickness score 4, effect at t = 24 hours ([3]; LPS dose 10.5): 3
mice with sickness score 1, effect at t = 48 hours ([3]; LPS dose 11): 6
mice with sickness score 2, effect at t = 24 hours ([3]; LPS dose 11): 4
mice with sickness score 4, effect at t = 24 hours ([3]; LPS dose 11): 2
